Laboratory results: patent US20240173303A1, “1,2,5-Oxadiazoles As Inhibitors Of Indoleamine 2,3- Dioxygenase” (Incyte Corporation, priority 2008, published 2024)
pIC50: −log10 of the molar value.

These molecules were tested against Human indoleamine 2,3-dioxygenase (IDO) (Homo sapiens (Human), UniProt P14902) (assay: Human Indoleamine 2,3-Dioxygenase (IDO) Enzyme Assay). Settings: Table 2; assay of Example A; 95 nM IDO, 2 mM D-Trp, pH 6.5, room temperature.
Format: biochemical
Excerpt: Human indoleamine 2,3-dioxygenase (IDO) with an N-terminal His tag was expressed in E. coli and purified to homogeneity. IDO catalyzes the oxidative cleavage of the pyrrole ring of the indole nucleus of tryptophan to yield N′-formylkynurenine.

Human indoleamine 2,3-dioxygenase (IDO), sequence (P14902 whole entry): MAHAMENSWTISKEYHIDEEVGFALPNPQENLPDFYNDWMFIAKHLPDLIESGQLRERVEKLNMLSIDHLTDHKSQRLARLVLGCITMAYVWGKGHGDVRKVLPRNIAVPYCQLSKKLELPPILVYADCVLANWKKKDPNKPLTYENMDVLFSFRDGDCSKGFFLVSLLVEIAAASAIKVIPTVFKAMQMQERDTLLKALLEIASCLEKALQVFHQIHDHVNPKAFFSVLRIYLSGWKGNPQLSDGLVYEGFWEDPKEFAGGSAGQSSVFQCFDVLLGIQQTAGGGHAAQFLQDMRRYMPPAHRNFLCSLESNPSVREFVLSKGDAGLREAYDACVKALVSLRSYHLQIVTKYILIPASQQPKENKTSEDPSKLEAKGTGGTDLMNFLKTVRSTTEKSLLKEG

Row | Compound | pIC50
1 | NS(=O)(=O)NCCCNc1nonc1C(=NO)Nc1ccc(F)c(C(F)(F)F)c1 [Example 11, 4-({3-[(Aminosulfonyl)amino]propyl}amino)-N-[4-fluoro-3-(trifluoromethyl)phenyl]-N′-hydroxy-1,2,5-oxadiazole-3-carboximidamide] | > 7.00
2 | CS(=O)(=O)NCCNc1nonc1C(=NO)Nc1ccc(F)c(C#N)c1 [Example 19, N-(3-Cyano-4-fluorophenyl)-N′-hydroxy-4-({2-[(methylsulfonyl)amino]ethyl}amino)-1,2,5-oxadiazole-3-carboximidamide] | > 6.30
3 | CS(=O)(=O)NCCNc1nonc1C(=NO)Nc1ccc(F)c(C(F)(F)F)c1 [Example 10, N-[4-Fluoro-3-(trifluoromethyl)phenyl]-N′-hydroxy-4-({2-[(methylsulfonyl)amino]ethyl}amino)-1,2,5-oxadiazole-3-carboximidamide] | > 7.00
4 | N#Cc1cc(NC(=NO)c2nonc2NCCNS(N)(=O)=O)ccc1F [Example 18, 4-({2-[(Aminosulfonyl)amino]ethyl}amino)-N-(3-cyano-4-fluorophenyl)-N′-hydroxy-1,2,5-oxadiazole-3-carboximidamide] | > 6.12
5 | Cc1cc(NC(=NO)c2nonc2NCCNS(C)(=O)=O)ccc1F [Example 17, N-(4-Fluoro-3-methylphenyl)-N′-hydroxy-4-({2-[(methylsulfonyl)amino]ethyl}amino)-1,2,5-oxadiazole-3-carboximidamide] | > 6.30
6 | CS(=O)(=O)NCCNc1nonc1C(=NO)Nc1cccc(C(F)(F)F)c1 [Example 14, N′-Hydroxy-4-({2-[(methylsulfonyl)amino]ethyl}amino)-N-[3-(trifluoromethyl)phenyl]-1,2,5-oxadiazole-3-carboximidamide] | > 6.70
7 | NS(=O)(=O)NCCCNc1nonc1C(=NO)Nc1cccc(C(F)(F)F)c1 [Example 15, 4-({3-[(Aminosulfonyl)amino]propyl}amino)-N′-hydroxy-N-[3-(trifluoromethyl)phenyl]-1,2,5-oxadiazole-3-carboximidamide] | > 6.70
8 | NS(=O)(=O)NCCNc1nonc1C(=NO)Nc1ccc(F)c(Cl)c1 [Example 5, 4-({2-[(Aminosulfonyl)amino]ethyl}amino)-N-(3-chloro-4-fluorophenyl)-N′-hydroxy-1,2,5-oxadiazole-3-carboximidamide] | > 6.70
9 | NS(=O)(=O)NCCNc1nonc1C(=NO)Nc1ccc(F)c(C(F)(F)F)c1 [Example 9, 4-({2-[(Aminosulfonyl)amino]ethyl}amino)-N-[4-fluoro-3-(trifluoromethyl)phenyl]-N′-hydroxy-1,2,5-oxadiazole-3-carboximidamide] | > 7.00
10 | NS(=O)(=O)NCCCNc1nonc1C(=NO)Nc1ccc(F)c(Br)c1 [Example 3, 4-({3-[(Aminosulfonyl)amino]propyl}amino)-N-(3-bromo-4-fluorophenyl)-N′-hydroxy-1,2,5-oxadiazole-3-carboximidamide] | > 7.00
11 | NS(=O)(=O)NCCCNc1nonc1C(=NO)Nc1ccc(F)c(Cl)c1 [Example 7, 4-({3-[(Aminosulfonyl)amino]propyl}amino)-N-(3-chloro-4-fluorophenyl)-N′-hydroxy-1,2,5-oxadiazole-3-carboximidamide] | > 6.70
12 | CS(=O)(=O)NCCCNc1nonc1C(=NO)Nc1ccc(F)c(Cl)c1 [Example 8, N-(3-Chloro-4-fluorophenyl)-N′-hydroxy-4-({3-[(methylsulfonyl)amino]propyl}amino)-1,2,5-oxadiazole-3-carboximidamide] | > 6.70
13 | CS(=O)(=O)NCCCNc1nonc1C(=NO)Nc1ccc(F)c(C(F)(F)F)c1 [Example 12, N-[4-Fluoro-3-(trifluoromethyl)phenyl]-N′-hydroxy-4-({3-[(methylsulfonyl)amino]propyl}amino)-1,2,5-oxadiazole-3-carboximidamide] | > 7.00
14 | CS(=O)(=O)NCCCNc1nonc1C(=NO)Nc1cccc(C(F)(F)F)c1 [Example 16, N′-Hydroxy-4-({3-[(methylsulfonyl)amino]propyl}amino)-N-[3-(trifluoromethyl)phenyl]-1,2,5-oxadiazole-3-carboximidamide] | > 6.70
15 | NS(=O)(=O)NCCNc1nonc1C(=NO)Nc1cccc(C(F)(F)F)c1 [Example 13, 4-({2-[(Aminosulfonyl)amino]ethyl}amino)-N′-hydroxy-N-[3-(trifluoromethyl)phenyl]-1,2,5-oxadiazole-3-carboximidamide] | > 6.30
16 | CS(=O)(=O)NCCCNc1nonc1C(=NO)Nc1ccc(F)c(Br)c1 [Example 4, N-(3-Bromo-4-fluorophenyl)-N′-hydroxy-4-({3-[(methylsulfonyl)amino]propyl}amino)-1,2,5-oxadiazole-3-carboximidamide] | > 7.00
17 | CS(=O)(=O)NCCNc1nonc1C(=NO)Nc1ccc(F)c(Cl)c1 [Example 6, N-(3-Chloro-4-fluorophenyl)-N′-hydroxy-4-({2-[(methylsulfonyl)amino]ethyl}amino)-1,2,5-oxadiazole-3-carboximidamide] | > 6.70

Same assay, conditions: Table 3; assay of Example A; 95 nM IDO, 2 mM D-Trp, pH 6.5, room temperature

Row | Compound | pIC50
18 | NS(=O)(=O)NCCNc1nonc1C(=NO)NCc1cc(Cl)co1 [Example 21, 4-({2-[(Aminosulfonyl)amino]ethyl}amino)-N-[(4-chloro-2-furyl)methyl]-N′-hydroxy-1,2,5-oxadiazole-3-carboximidamide] | > 6.12
19 | NS(=O)(=O)NCCNc1nonc1C(=NO)NCc1cc(Br)co1 [Example 20, 4-({2-[(Aminosulfonyl)amino]ethyl}amino)-N-[(4-bromo-2-furyl)methyl]-N′-hydroxy-1,2,5-oxadiazole-3-carboximidamide] | > 6.30
